From paper PMC10893631, “Receptor-based pharmacophore modeling, molecular docking, synthesis and biological evaluation of novel VEGFR-2, FGFR-1, and BRAF multi-kinase inhibitors” (BMC Chemistry, 2024)

How the values were obtained:
Experiment in all cases: NCI SRB growth inhibition (single dose 10 µM / five-dose)
Type in all cases: cell-based, human
[1] = system: A549/ATCC; details: for GI50: A549/ATCC, Non-small cell lung cancer, five-dose
Experimental: (§1) Screening of cytotoxic activity against a panel of sixty human tumor cell lines The selected compounds by NCI were evaluated for their anticancer activity in a two- stage process. […] Then, the output from the single dose screen is reported as a mean graph. […] Assay protocol. […] For a typical screening experiment, cells are inoculated into 96 well microtiter plates in 100 µL at plating densities ranging from 5000 to 40,000 cells/well depending on the doubling time of individual cell lines. […] After 24 h, two plates of each cell line are fixed in situ with TCA, to represent a measurement of the cell population for each cell line at the time of drug addition (Tz). The experimental drugs are solubilized in dimethyl sulfoxide at 400-fold the desired final maximum test concentration and stored frozen prior to use. At the time of drug addition, an aliquot of frozen concentrate is thawed and diluted to twice the desired final maximum test concentration with complete medium containing 50 µg/mL gentamicin. Additional four, 10-fold or ½ log serial dilutions are made to provide a total of five drug concentrations plus control. Aliquots of 100 mL of these different drug dilutions are added to the appropriate microtiter wells already containing […] of medium, resulting in the required final drug concentrations. […] For adherent cells, the assay is terminated by the addition of cold TCA. […] The supernatant is discarded, and the plates are washed five times with tap water and air dried. Sulforhodamine B (SRB) solution ([…]) at 0.4% (w/v) in 1% acetic acid is added to each well, and plates are incubated for 10 min at room temperature. After staining, unbound dye is removed by washing five times with 1% acetic acid and the plates are air dried. […] Using the seven absorbance measurements [time zero, (Tz), control growth, (C), and test growth in the presence of drug at the five concentration levels (Ti)], the percentage growth is calculated at each of the drug concentrations levels. Percentage growth inhibition is calculated as: [(Ti Tz)/(C–Tz)] x 100 for concentrations for which Ti>/=Tz and [(Ti-Tz)/Tz] x 100 for concentrations for which Ti < Tz. Three dose response parameters are calculated for each experimental agent. […] The drug concentration resulting in total growth inhibition (TGI) is calculated from Ti = Tz. […] Values are calculated for each of these three parameters if the level of activity is reached; however, if the effect is not reached or is exceeded, the value for that parameter is expressed as greater or less than the maximum or minimum concentration tested.

[2] = system: ACHN; details: for GI50: ACHN, Renal cancer, five-dose
Experimental: as §1

[3] = system: BT-549; details: for GI50: BT-549, Breast cancer, five-dose
Experimental: as §1

[4] = system: CAKI-1; details: for GI50: CAKI-1, Renal cancer, five-dose
Experimental: as §1

[5] = system: CCRF-CEM; details: for GI50: CCRF-CEM, Leukemia, five-dose
Experimental: as §1

[6] = system: COLO 205; details: for GI50: COLO 205, Colon cancer, five-dose
Experimental: as §1

[7] = system: DU-145; details: for GI50: DU-145, Prostate cancer, five-dose
Experimental: as §1

[8] = system: EKVX; details: for GI50: EKVX, Non-small cell lung cancer, five-dose
Experimental: as §1

[9] = system: HT29; details: for GI50: HT29, Colon cancer, five-dose
Experimental: as §1

[10] = system: IGROV1; details: for GI50: IGROV1, Ovarian cancer, five-dose
Experimental: as §1

[11] = system: K-562; details: for GI50: K-562, Leukemia, five-dose
Experimental: as §1

[12] = system: LOX IMVI; details: for GI50: LOX IMVI, Melanoma, five-dose
Experimental: as §1

[13] = system: M14; details: for GI50: M14, Melanoma, five-dose
Experimental: as §1

[14] = system: MDA-MB-435; details: for GI50: MDA-MB-435, Melanoma, five-dose
Experimental: as §1

[15] = system: NCI-H322M; details: for GI50: NCI-H322M, Non-small cell lung cancer, five-dose
Experimental: as §1

[16] = system: NCI-H460; details: for GI50: NCI-H460, Non-small cell lung cancer, five-dose
Experimental: as §1

[17] = system: NCI-H522; details: for GI50: NCI-H522, Non-small cell lung cancer, five-dose
Experimental: as §1

[18] = system: NCI/ADR-RES
Experimental: as §1

[19] = system: OVCAR-3; details: for GI50: OVCAR-3, Ovarian cancer, five-dose
Experimental: as §1

[20] = system: OVCAR-4; details: for GI50: OVCAR-4, Ovarian cancer, five-dose
Experimental: as §1

[21] = system: OVCAR-8; details: for GI50: OVCAR-8, Ovarian cancer, five-dose
Experimental: as §1

[22] = system: SF-295; details: for GI50: SF-295, CNS cancer, five-dose
Experimental: as §1

[23] = system: SK-MEL-2; details: for GI50: SK-MEL-2, Melanoma, five-dose
Experimental: as §1

[24] = system: SK-OV-3; details: for GI50: SK-OV-3, Ovarian cancer, five-dose
Experimental: as §1

[25] = system: SN12C; details: SN12C, Renal cancer, five-dose
Experimental: as §1

[26] = system: SR; details: for GI50: SR, Leukemia, five-dose
Experimental: as §1

## N'-(2-Hydroxybenzylidene)-2-phenyl-1H-benzo[d]imidazole-5-carbohydrazide [8a]
[1]; A549/ATCC (Non-small cell lung cancer), 10 µM
  GI%: L (GI% > 100)
[1]
  GI50: 3.41 µM
[2]; ACHN (Renal cancer), 10 µM
  GI%: L (GI% > 100)
[2]
  GI50: 3.28 µM
[3]; BT-549 (Breast cancer), 10 µM
  GI%: L (GI% > 100)
[3]
  GI50: 1.8 µM
[4]; CAKI-1 (Renal cancer), 10 µM
  GI%: L (GI% > 100)
[4]
  GI50: 3.48 µM
[5]; CCRF-CEM (Leukemia), 10 µM
  GI%: 88.16%
[5]
  GI50: 0.26 µM
[6]; COLO 205 (Colon cancer), 10 µM
  GI%: L (GI% > 100)
[6]
  GI50: 1.97 µM
[7]; DU-145 (Prostate cancer), 10 µM
  GI%: L (GI% > 100)
[7]
  GI50: 2.75 µM
[8]; EKVX (Non-small cell lung cancer), 10 µM
  GI%: 96.49%
[8]
  GI50: 1.85 µM
[9]; HT29 (Colon cancer), 10 µM
  GI%: L (GI% > 100)
[9]
  GI50: 2.63 µM
[10]; IGROV1 (Ovarian cancer), 10 µM
  GI%: 82.83%
[10]
  GI50: 3.9 µM
[11]; K-562 (Leukemia), 10 µM
  GI%: 78.58%
[11]
  GI50: 3.39 µM
[12]; LOX IMVI (Melanoma), 10 µM
  GI%: 88.38%
[12]
  GI50: 2 µM
[13]; M14 (Melanoma), 10 µM
  GI%: 81.80%
[13]
  GI50: 0.92 µM
[14]; MDA-MB-435 (Melanoma), 10 µM
  GI%: 63.10%
[14]
  GI50: 5.77 µM
[15]; NCI-H322M (Non-small cell lung cancer), 10 µM
  GI%: 94.14%
[15]
  GI50: 2.13 µM
[16]; NCI-H460 (Non-small cell lung cancer), 10 µM
  GI%: L (GI% > 100)
[16]
  GI50: 2.37 µM
[17]; NCI-H522 (Non-small cell lung cancer), 10 µM
  GI%: L (GI% > 100)
[17]
  GI50: 1.87 µM
[18]; NCI/ADR-RES (Ovarian cancer), 10 µM
  GI%: 63.15%
[18]; NCI/ADR-RES, Ovarian cancer, five-dose
  GI50: 3.51 µM
[19]; OVCAR-3 (Ovarian cancer), 10 µM
  GI%: L (GI% > 100)
[19]
  GI50: 1.94 µM
[20]; OVCAR-4 (Ovarian cancer), 10 µM
  GI%: 94.42%
[20]
  GI50: 2.24 µM
[21]; OVCAR-8 (Ovarian cancer), 10 µM
  GI%: L (GI% > 100)
[21]
  GI50: 2.49 µM
[22]; SF-295 (CNS cancer), 10 µM
  GI%: L (GI% > 100)
[22]
  GI50: 2.7 µM
[23]; SK-MEL-2 (Melanoma), 10 µM
  GI%: 60.21%
[23]
  GI50: 3.19 µM
[24]; SK-OV-3 (Ovarian cancer), 10 µM
  GI%: L (GI% > 100)
[24]
  GI50: 2.62 µM
[25]
  GI50: 4.67 µM
[26]; SR (Leukemia), 10 µM
  GI%: 92.31%
[26]
  GI50: 1.68 µM

## COc1cc(C=NNC(=O)c2ccc3[nH]c(-c4ccc(Cl)cc4)nc3c2)cc(OC)c1OC [8u, 2-(4-Chlorophenyl)-N'-(3,4,5-trimethoxybenzylidene)-1H-benzo[d]imidazole-5-carbohydrazide]
[1]; Homo sapiens, A549/ATCC (Non-small cell lung cancer), 10 µM, read-out: GI%
  inhibition at 10 µM: 70.8%
[1]; Homo sapiens
  GI50: 7.55 µM
[2]; Homo sapiens, ACHN (Renal cancer), 10 µM, read-out: GI%
  inhibition at 10 µM: 69.9%
[2]; Homo sapiens
  GI50: 7.93 µM
[3]; Homo sapiens, BT-549 (Breast cancer), 10 µM, read-out: GI%
  inhibition at 10 µM: > 100%
[3]; Homo sapiens
  GI50: 2.69 µM
[4]; Homo sapiens, CAKI-1 (Renal cancer), 10 µM, read-out: GI%
  inhibition at 10 µM: 97.1%
[4]; Homo sapiens
  GI50: 11.2 µM
[5]; Homo sapiens, CCRF-CEM (Leukemia), 10 µM, read-out: GI%
  inhibition at 10 µM: > 100%
[5]; Homo sapiens
  GI50: 6.27 µM
[6]; Homo sapiens, COLO 205 (Colon cancer), 10 µM, read-out: GI%
  inhibition at 10 µM: > 100%
[6]; Homo sapiens
  GI50: 2.84 µM
[7]; Homo sapiens, DU-145 (Prostate cancer), 10 µM, read-out: GI%
  inhibition at 10 µM: > 100%
[7]; Homo sapiens
  GI50: 6.77 µM
[8]; Homo sapiens, EKVX (Non-small cell lung cancer), 10 µM, read-out: GI%
  inhibition at 10 µM: 90.8%
[8]; Homo sapiens
  GI50: 14.8 µM
[9]; Homo sapiens, HT-29, HT29 (Colon cancer), 10 µM, read-out: GI%
  inhibition at 10 µM: > 100%
[9]; Homo sapiens, HT-29
  GI50: 2.98 µM
[10]; Homo sapiens, IGROV-1, IGROV1 (Ovarian cancer), 10 µM, read-out: GI%
  inhibition at 10 µM: 92.4%
[10]; Homo sapiens, IGROV-1
  GI50: 11 µM
[11]; Homo sapiens, K562, K-562 (Leukemia), 10 µM, read-out: GI%
  inhibition at 10 µM: > 100%
[11]; Homo sapiens, K562
  GI50: 1.96 µM
[12]; Homo sapiens, LOX IMVI (Melanoma), 10 µM, read-out: GI%
  inhibition at 10 µM: > 100%
[12]; Homo sapiens
  GI50: 4.67 µM
[13]; Homo sapiens, M14 (Melanoma), 10 µM, read-out: GI%
  inhibition at 10 µM: > 100%
[13]; Homo sapiens
  GI50: 3.77 µM
[14]; Homo sapiens, MDA-MB-435 (Melanoma), 10 µM, read-out: GI%
  inhibition at 10 µM: > 100%
[14]; Homo sapiens
  GI50: 4.13 µM
[15]; Homo sapiens, NCI-H322M (Non-small cell lung cancer), 10 µM, read-out: GI%
  inhibition at 10 µM: 96.1%
[15]; Homo sapiens
  GI50: 8.29 µM
[16]; Homo sapiens, NCI-H460 (Non-small cell lung cancer), 10 µM, read-out: GI%
  inhibition at 10 µM: > 100%
[16]; Homo sapiens
  GI50: 3.19 µM
[17]; Homo sapiens, NCI-H522 (Non-small cell lung cancer), 10 µM, read-out: GI%
  inhibition at 10 µM: > 100%
[17]; Homo sapiens
  GI50: 4.9 µM
[18]; Homo sapiens, NCI/ADR-RES (Ovarian cancer), 10 µM, read-out: GI%
  inhibition at 10 µM: 24.3%
[19]; Homo sapiens, OVCAR-3 (Ovarian cancer), 10 µM, read-out: GI%
  inhibition at 10 µM: > 100%
[19]; Homo sapiens
  GI50: 2.28 µM
[20]; Homo sapiens, OVCAR-4 (Ovarian cancer), 10 µM, read-out: GI%
  inhibition at 10 µM: > 100%
[20]; Homo sapiens
  GI50: 2.35 µM
[21]; Homo sapiens, OVCAR-8 (Ovarian cancer), 10 µM, read-out: GI%
  inhibition at 10 µM: > 100%
[21]; Homo sapiens
  GI50: 3.87 µM
[22]; Homo sapiens, SF-295 (CNS cancer), 10 µM, read-out: GI%
  inhibition at 10 µM: > 100%
[22]; Homo sapiens
  GI50: 4.18 µM
[23]; Homo sapiens, SK-MEL-2 (Melanoma), 10 µM, read-out: GI%
  inhibition at 10 µM: > 100%
[23]; Homo sapiens
  GI50: 11 µM
[24]; Homo sapiens, SK-OV-3 (Ovarian cancer), 10 µM, read-out: GI%
  inhibition at 10 µM: > 100%
[24]; Homo sapiens
  GI50: 15 µM
[25]; Homo sapiens
  GI50: 3.22 µM
[26]; Homo sapiens, SR (Leukemia), 10 µM, read-out: GI%
  inhibition at 10 µM: > 100%
[26]; Homo sapiens
  GI50: 3.76 µM
